In one assay the test system is TrkA. Briefly: Co-immunoprecipitation of HA-Karet constructs with TrkA. The assay is classed as binding. The settings on record: co-transfected Hek or NNR5 cells, anti-HA IP. The procedure: FIG. 3c is a co-immunoprecipitation assay depicting co-immunoprecipitation of HA-Karet with TrkA in COS cells. Karet tagged with the HA epitope was immunoprecipitated with anti-HA antibody and the blot was incubated with anti-TrkA (RTA). In control experiments the HA-Karet was substituted with vector.
FIG. 3d is a co-immunoprecipitation assay depicting interaction of Karet and TrkA in NNR5 cells transfected with TrkA.
FIG. 3e is a co-immunoprecipitation assay depicting co-immunoprecipitation of HA-Karet with TricA in co-transfected NNR5 cells immunoprecipitated with anti-HA (Roche) and Western blot with the anti-TrkA antibody C14 (Santa Cruz).
FIGS. 4a-c are co-immunoprecipitation assay results depicting the influence of NGF treatment on TrkA-Karet interaction. FIG. 4a depicts that TrkA-Karet interaction occurred prior to NGF treatment and was enhanced after ligand stimulation for 10 minutes (10 m) or 2 hours (2 h). HA-Karet was electroporated into cell line PC12, and the cells were treated with 50 ng/ml NGF for the indicated time periods in order to activate p75 and TrkA. Karet tagged with the HA epitope was immunoprecipitated with anti-HA antibody, the precipitated proteins were separated electrophoretically, and gel blots were incubated with anti-TrkA antibody (RTA). FIG. 4b depicts that necdin seems to compete with TrkA for binding to Karet. myc-Karet was electroporated into necdin stable cell line, and the cells were treated with 50 ng/ml NGF for the indicated time periods. Karet tagged with the myc epitope was immunoprecipitated with anti-myc antibody, the precipitated proteins were separated electrophoretically, and gel blots were incubated with anti-TrkA antibody (RTA). […] A blot from the same experiment was stripped and re-incubated with anti-necdin antibody. The arrow indicates the glycosylated form of TrkA (molecular weight of 140 kDa).
FIG. 7b is an immunoprecipitation assay depicting that the PTB domain-containing Karet(1-228) mutant, but not Karet(228-453) co-immunoprecipitates with TrkA in NNR5 cells. Truncation mutants tagged with the HA epitope were immunoprecipitated with anti-HA antibody, the precipitated proteins were separated electrophoretically, and gel blots were incubated with anti-TrkA (RTA).
FIGS. 24a-d depict co IP of Ha Karet with TrkA, TrkB, TrkC, p75 from co-transfected Hek cells. Cells were co-transfected with Ha Karet or control vector and TrkA, TrkB, TrkC or p75. Cells were lysed with NP40, the HA-beads (beads conjugated to anti-HA antibody) were blocked with Hek lysate, and elution was done for 30 minutes at 37° C. […]

The test system of the next assay is PC12 cells. Briefly: Viability / death of PC12 cells after transfection with Karet constructs (Live/dead kit, FACS, cell counting, Hoechst). The settings on record: for cell viability / death versus control vector: PC12, 18 hours after transfection, dead/live kit and FACS. The assay is classed as cell-based, rat. The procedure: FIG. 5a is a bar-graph of FACS data depicting 50 percent death of PC12 cells overexpressing Karet. Shown is a FACS analysis of PC12 viability 15 hours after transfection with Ha-Karet or control vector using Live/dead kit (Molecular probes), T-test=0.003.
FIG. 5b is a series of fluorescence photomicrographs depicting death of PC12 cells caused by Karet overexpression. Shown is a live/dead kit analysis of PC12 cells overexpressing Ha-Karet (left panels) versus control vector-transfected cells (right panels). Live cell are stained in green, dead cells are stained in red. Upper panels each show red fluorescence only (left picture) and green fluorescence only (right picture) pairs, and lower panels each show combined red and green fluorescence (left picture) and light microscopy images (right picture) pairs.
FIG. 5d is a pair of Hoechst stain histology photomicrographs depicting condensation of chromatin indicating apoptosis in PC12 cells expressing Karet, but not in control cells transfected with vector only.
FIG. 5e is a histogram depicting that Karet expression induces cell death of TrkA expressing cells, which is increased by NGF treatment and is decreased by necdin. PC12 or PC12 necdin stable cell line were electroporated with Karet or GFP control and incubated with or without 50 ng/ml NGF for 12 hours. Cells were counted and result presented as percent of control.
PC12 cells were transfected with Ha Karet, PTB, non PTB and their combinations. Cells were analyzed by FACS 18 hours after transfection using the dead/live kit. N=3; * p<0.05; **p<0.001;
The lower panel is a histogram depicting that Karet-mediated cell death correlates well with expression levels of the Karet protein. PC12 Tet-on cells were electroporated with Ha-Karet cloned under inducible promoter and incubated for 24 hours with different concentrations of doxycycline. Cells transfected with Karet but not treated with doxycycline served as control. Cells were counted and the results were determined as percent of control. The upper panel is a control Western blot depicting increased Karet expression with increased concentrations of doxycycline. Cells transfected with Karet and treated with doxycycline were lysed in NP-40 buffer and subjected to SDS-PAGE analysis. Similar amount of protein was loaded and blotted for Karet expression with Ha antibody. Proteins levels were checked with anti-tubulin antibody.
FIG. 18a—PC12 were transfected with Ha Karet, Karet F217V, PTB F217V or a control vector (pcDNA3) and 18 hours after transfection the effect of Karet or Karet mutants on cell death was determined using the dead/live kit and FACS analysis. Results are presented in percentages as compared to cells transfected with the control vector. N=3 **P<0.001. […] FIG. 18b—Cells were lysed 24 hours after transfection, fractionated on SDS-PAGE and immunoblot for anti Ha (Covance).
FIG. 19 is a histogram depicting FACS analysis of Karet-induced death. PC12 cells were co-transfected with Karet and the PTB, non-PTB or the F217V mutant at different ratios (1:1, 1:2, 1:3) and 18 hours after transfection the cells were analyzed by FACS using the dead/live kit.
Viability of cells was evaluated using the Live/dead viability/cytotoxicity kit (Cat. No. L-3224), Molecular Probes, Inc., Eugene, Oreg., USA, according to manufacturer's instructions.

Entries after “also recorded” stand apart in the source; their conditions may differ.

As for “Karet F217V: full-length mouse Karet with phenyl alanine at position 217 point mutated to valine”, the “co-immunoprecipitation / interaction with TrkA” value in the assay with TrkA was “co-immunoprecipitated”. Also, the “cell viability / death versus control vector” value with PC12 cells is “do not cause death; also recorded: does not induce cell death”. The “effect on Karet-induced death in competition assay” value in the assay on PC12 cells (PC12 co-transfected with Karet at ratios 1:1, 1:2, 1:3, FACS 18 hours after transfection) was “reduced Karet-induced death”.
As for “Karet: full-length mouse Karet protein (SEQ ID NO:1), PTB domain protein, expressed from pcDNA3 with HA tag”, in the assay on TrkA, the “co-immunoprecipitation / interaction with TrkA” value was “co-immunoprecipitated”. The “cell viability / death versus control vector” value in the assay with PC12 cells is listed as “significant reduction in the viability”. In addition, in the assay with PC12 cells (PC12 Tet-on cells, 24 hours, different concentrations of doxycycline), the “cell death versus Karet expression level” value was “well correlated with expression levels of the Karet protein”. The Hoechst staining entry with PC12 cells (PC12 cells expressing Karet versus control-transfected cells) is recorded as “condensed chromatin indicating apoptotic death”.

These data come from US20090036380A1, “Composition And Method For Brain Tumor Therapy” (Yeda Research and Development Co., Ltd., priority 2006, published 2009).
